The assay deals with T1, human mAChR M1 (Homo sapiens, UniProt P11229).
T1 sequence (P11229 1-460): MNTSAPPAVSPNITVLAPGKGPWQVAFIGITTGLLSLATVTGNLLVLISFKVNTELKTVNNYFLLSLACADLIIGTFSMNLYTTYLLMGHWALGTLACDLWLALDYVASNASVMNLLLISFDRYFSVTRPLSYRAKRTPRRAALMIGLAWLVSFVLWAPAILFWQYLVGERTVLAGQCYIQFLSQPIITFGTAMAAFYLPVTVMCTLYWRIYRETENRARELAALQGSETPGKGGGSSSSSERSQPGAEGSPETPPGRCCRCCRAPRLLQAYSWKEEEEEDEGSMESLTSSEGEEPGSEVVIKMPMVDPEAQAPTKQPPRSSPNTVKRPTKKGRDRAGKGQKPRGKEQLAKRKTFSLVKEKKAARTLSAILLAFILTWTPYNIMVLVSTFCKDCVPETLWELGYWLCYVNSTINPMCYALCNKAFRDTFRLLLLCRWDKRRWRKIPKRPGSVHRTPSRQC
The experiment in a line: mAChR M1 cell-based functional assay: calcium mobilization, positive allosteric modulator mode (increase in EC20 acetylcholine response). Particulars: for Emax: read-out: Human M1 Emax (%). In a few lines:
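Calcium-flux assay in CHO-K1 cells stably expressing human M1, loaded with Fluo-4 AM (50 min, 37 °C) and read at 1 Hz. Compound (11-point, 1:3 series) was added at 4 s, EC20 acetylcholine at 144 s and EC80 at 230 s. PAM activity is the concentration-dependent rise in the EC20 response, fitted with a four-parameter logistic.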
A general note: A change in cytosolic calcium serves as a functional read-out for many receptors and channels.

Setting [1] is: Table 2, human M1, read-out: Human M1 EC50.

SMILES strings stand for the structures. Where two headings read alike, the source gives them in different places. Where only a bound is given, the exact number is not on record here.

As usually defined, the EC50 is the concentration that produces a half-maximal response. Usually Emax stands for the maximal effect, on the per cent scale that the assay sets. Take `Cc1csc2c(Cc3ccc(-n4cccn4)cc3)cc(C(=O)N[C@@H]3CCCC[C@H]3O)nc12` [Compound 116, N-[(1R,2R)-2-hydroxycyclohexyl]-3-methyl-7-[(4-pyrazol-1-ylphenyl)methyl]thieno[3,2-b]pyridine-5-carboxamide]: the concentration for a half-maximal effect (EC50) under setting [1] was 320 nM. For the same compound, the Emax (Table 2, human M1) came to 78.7%.
In the case of `Cc1ccc(Oc2cc(C(=O)NC(CO)C3CC3)nc3ccsc23)cn1` (stereo not shown) [Compound 30, N-(1-cyclopropyl-2-hydroxy-ethyl)-7-[(6-methyl-3-pyridyl)oxy]thieno[3,2-b]pyridine-5-carboxamide], the EC50 (Table 1, mAChR M1 cell-based functional assay, PAM mode, species not given, read-out: EC50) is over 10000 nM.
For `Cn1ccc(-c2ccc(Cc3cc(C(=O)N[C@H]4CCOC[C@@H]4O)nc4ccsc34)cc2)n1` [Compound 255, N-[(3R,4S)-3-hydroxytetrahydropyran-4-yl]-7-[[4-(1-methylpyrazol-3-yl)phenyl]methyl]thieno[3,2-b]pyridine-5-carboxamide], the EC50 under setting [1] is 5.76 nM. The Emax (Table 2, human M1) came out at 47%.
As for `O=C(NC1CC2(COC2)C1)c1cc(Cc2c(F)cc(-c3cscn3)cc2F)c2sccc2n1` [Compound 272, 7-[(2,6-difluoro-4-thiazol-4-yl-phenyl)methyl]-N-(2-oxaspiro[3.3]heptan-6-yl)thieno[3,2-b]pyridine-5-carboxamide], the half-maximal effective concentration (EC50) under setting [1] came to 434 nM. Moreover, under “Table 2, human M1”, the Emax came to 35.9%.
For `Cn1cc(-c2ccc(Cc3cc(C(=O)N[C@@H]4CCCC[C@H]4O)nc4ccsc34)cc2)nn1` [Compound 155, N-[(1R,2R)-2-hydroxycyclohexyl]-7-[[4-(1-methyltriazol-4-yl)phenyl]methyl]thieno[3,2-b]pyridine-5-carboxamide], the concentration giving a half-maximal response (EC50) under setting [1] was determined as 12.7 nM. Besides, the Emax (Table 2, human M1) came out at 68.7%.
Turning to `Cn1cc(-c2ccc(Cc3cc(C(=O)N[C@H]4CC[C@@H]4O)nc4ccsc34)cc2)nn1` [Compound 148, N-[(1S,2S)-2-hydroxycyclobutyl]-7-[[4-(1-methyltriazol-4-yl)phenyl]methyl]thieno[3,2-b]pyridine-5-carboxamide], the EC50 under setting [1] came to 33.1 nM. In addition, the Emax (Table 2, human M1) turned out to be 85.5%.
With `CO[C@@H]1CCCC[C@H]1NC(=O)c1cc(Cc2ccc(-c3cn(C)nn3)cc2)c2sccc2n1` [Compound 156, N-[(1R,2R)-2-methoxycyclohexyl]-7-[[4-(1-methyltriazol-4-yl)phenyl]methyl]thieno[3,2-b]pyridine-5-carboxamide], the EC50 under setting [1] worked out at 260 nM. The Emax (Table 2, human M1) was determined as 89.2%.
On to `O=C(N[C@@H]1CCOC1)c1cc(Cc2ccc(-n3cccn3)cc2)c2sccc2n1` [Compound 277, 7-[(4-pyrazol-1-ylphenyl)methyl]-N-[(3R)-tetrahydrofuran-3-yl]thieno[3,2-b]pyridine-5-carboxamide], for which the EC50 under setting [1] turned out to be 627 nM. The Emax (Table 2, human M1) is 67.9%.
As to `O=C(N[C@H]1CCC[C@@H]1O)c1cc(Cc2ccc(-c3cncs3)cc2)c2sccc2n1` [Compound 397, N-[(1S,2S)-2-hydroxycyclopentyl]-7-[(4-thiazol-5-ylphenyl)methyl]thieno[3,2-b]pyridine-5-carboxamide], the 50% effective concentration (EC50) under setting [1] amounted to 111 nM. For the same compound, where the note is “Table 2, human M1”, the Emax was 59.6%.
For `Cc1ccc(Cc2cc(C(=O)Nc3n[nH]c4ccccc34)nc3ccsc23)cn1` [Compound 65, N-(1H-indazol-3-yl)-7-[(6-methyl-3-pyridyl)methyl]thieno[3,2-b]pyridine-5-carboxamide], under setting [1], the EC50 is 1720 nM. The Emax (Table 2, human M1) was 37.3%.
As to `Cc1ccc(Cc2cc(C(=O)NC3C(=O)Nc4ccccc43)nc3ccsc23)cn1` (stereo not shown) [Compound 68, 7-[(6-methyl-3-pyridyl)methyl]-N-(2-oxoindolin-3-yl)thieno[3,2-b]pyridine-5-carboxamide], the EC50 under setting [1] amounted to 9700 nM. Moreover, the maximal effect (Emax) (Table 2, human M1) came out at 22.8%.
For the compound `Cc1ncc(Cc2cc(C(=O)N[C@@H]3CCC[C@H]3O)nc3ccsc23)s1` [Compound 133, N-[(1R,2R)-2-hydroxycyclopentyl]-7-[(2-methylthiazol-5-yl)methyl]thieno[3,2-b]pyridine-5-carboxamide], the half-maximal effective concentration (EC50) under setting [1] was 3620 nM. Moreover, the Emax (Table 2, human M1) is 77.9%.
In the same order, the values of `Cn1ccc(-c2ccc(Cc3cc(C(=O)N[C@@H]4CCOC4)nc4ccsc34)cn2)n1` [Compound 418, 7-[[6-(1-methylpyrazol-3-yl)-3-pyridyl]methyl]-N-[(3R)-tetrahydrofuran-3-yl]thieno[3,2-b]pyridine-5-carboxamide] are 5130 nM and 67%.
Turning to `O=C(N[C@H]1CCOC1)c1cc(Cc2ccc(-c3cncs3)cc2)c2sccc2n1` [Compound 399, N-[(3S)-tetrahydrofuran-3-yl]-7-[(4-thiazol-5-ylphenyl)methyl]thieno[3,2-b]pyridine-5-carboxamide], the concentration giving a half-maximal response (EC50) under setting [1] is 4310 nM. Besides, where the note is “Table 2, human M1”, the Emax is 45.1%.
For the compound `N#CC1(NC(=O)c2cc(Cc3ccc(-n4cccn4)cc3)c3sccc3n2)CC1` [Compound 282, N-(1-cyanocyclopropyl)-7-[(4-pyrazol-1-ylphenyl)methyl]thieno[3,2-b]pyridine-5-carboxamide], the EC50 under setting [1] is 601 nM. In addition, the maximal effect (Emax) (Table 2, human M1) worked out at 40%.
In the same order, the values of `Cn1cc(-c2cc(F)c(Cc3cc(C(=O)N[C@H]4CCC[C@@H]4O)nc4ccsc34)c(F)c2)cn1` [Compound 58, 7-[[2,6-difluoro-4-(1-methylpyrazol-4-yl)phenyl]methyl]-N-[(1S,2S)-2-hydroxycyclopentyl]thieno[3,2-b]pyridine-5-carboxamide] are 6030 nM and 50.2%.
Consider `Cc1ncc(Cc2cc(C(=O)NC3CCCCC3)nc3ccsc23)s1` [Compound 134, N-cyclohexyl-7-[(2-methylthiazol-5-yl)methyl]thieno[3,2-b]pyridine-5-carboxamide], for which the EC50 under setting [1] amounted to 3210 nM. For the same compound, the maximal response (Emax) (Table 2, human M1) turned out to be 37.6%.
In the same order, the values of `O=C(NCC1CCOC1)c1cc(Cc2ccc(-c3cncs3)cc2)c2sccc2n1` (stereo not shown) [Compound 396, N-(tetrahydrofuran-3-ylmethyl)-7-[(4-thiazol-5-ylphenyl)methyl]thieno[3,2-b]pyridine-5-carboxamide] are 1060 nM and 63%.
Turning to `Cc1ccc(Cc2cc(C(=O)N[C@@H]3CCOC3)nc3ccsc23)cn1` [Compound 262], under setting [1], the EC50 was over 10000 nM. The Emax (Table 2, human M1) is 24.4%.
Regarding `O=C(NC1CC(F)C1)c1cc(Cc2ccc(-c3nccs3)cc2)c2sccc2n1` (stereo not shown) [Compound 367, N-(3-fluorocyclobutyl)-7-[(4-thiazol-2-ylphenyl)methyl]thieno[3,2-b]pyridine-5-carboxamide], the concentration for a half-maximal effect (EC50) under setting [1] was over 10000 nM. The Emax (Table 2, human M1) is 71.9%.
The matching figures for `O=C(N[C@H]1CCC[C@@H]1O)c1cc(Cc2ccc(-c3cscn3)cc2)c2sccc2n1` [Compound 206, N-[(1S,2S)-2-hydroxycyclopentyl]-7-[(4-thiazol-4-ylphenyl)methyl]thieno[3,2-b]pyridine-5-carboxamide]: 38.8 nM and 87%.
For the compound `Cn1ccc(-c2ccc(Cc3cc(C(=O)NC4CC5(COC5)C4)nc4ccsc34)cn2)n1` [Compound 351, 7-[[6-(1-methylpyrazol-3-yl)-3-pyridyl]methyl]-N-(2-oxaspiro[3.3]heptan-6-yl)thieno[3,2-b]pyridine-5-carboxamide], the EC50 under setting [1] turned out to be 143 nM. For the same compound, the Emax (Table 2, human M1) is 89.9%.
